Test results as given in US9044426B2, “Antimicrobial peptides for treatment of infectious diseases” (Dr. Roland Berecz, priority 2011, dated 2015).
Where no end group is shown, it is not given here.

Tested on: luminescent bacteria
Experiment: Luminescence screen of SPOT-synthesized peptides on luminescent bacteria, with recovery check
Type: cell-based
Settings: 0.1 M Tris buffer pH 7.4, 20 mM glucose, luminescence after 4 hours, recovery inspected after 18 h
Experimental: The peptides are synthesized using standard Fmoc-strategy on cellulose with the SPOT technology; they are positively charged peptides, which were then cleaved from the cellulose and solubilized in water. Peptides were transferred into wells containing luminescent bacteria, in 0.1 M Tris buffer (pH 7.4), containing 20 mM glucose. After 4 hours of incubation time, the luminescence was measured using a microtiter plate reader. Consequently, 50 μl of Mueller-Hinton media was added in order to check for recovery of the bacteria. The plates were manually inspected after 18 h of incubation time.

Sequence	antimicrobial activity
RKFRWWVIR (also: cellulose-bound) [RKFRWWVIR (SEQ ID NO.:22), peptide synthesized on cellulose with the SPOT technology]	showed antimicrobial activity
KRRWRIWLV (also: cellulose-bound) [KRRWRIWLV (SEQ ID NO.:15), peptide synthesized on cellulose with the SPOT technology]	showed antimicrobial activity
LRRWIRIRW (also: cellulose-bound) [LRRWIRIRW (SEQ ID NO.:21), peptide synthesized on cellulose with the SPOT technology]	showed antimicrobial activity
RLKRWWKFL (also: cellulose-bound) [RLKRWWKFL (SEQ ID NO.:7), peptide synthesized on cellulose with the SPOT technology]	showed antimicrobial activity
RIRRWKFRW (also: cellulose-bound) [RIRRWKFRW (SEQ ID NO.:6), peptide synthesized on cellulose with the SPOT technology]	showed antimicrobial activity
WKWRVRVTI (also: cellulose-bound) [WKWRVRVTI (SEQ ID NO.:27), peptide synthesized on cellulose with the SPOT technology]	showed antimicrobial activity
YRLRVKWKW (also: cellulose-bound) [YRLRVKWKW (SEQ ID NO.:26), peptide synthesized on cellulose with the SPOT technology]	showed antimicrobial activity
KRKKRFKWW (also: cellulose-bound) [KRKKRFKWW (SEQ ID NO.:29), peptide synthesized on cellulose with the SPOT technology]	showed antimicrobial activity
RTKKWIVWI (also: cellulose-bound) [RTKKWIVWI (SEQ ID NO.:28), peptide synthesized on cellulose with the SPOT technology]	showed antimicrobial activity
KFKWWRMLI (also: cellulose-bound) [KFKWWRMLI (SEQ ID NO.:10), peptide synthesized on cellulose with the SPOT technology]	showed antimicrobial activity
RRRWWKLMM (also: cellulose-bound) [RRRWWKLMM (SEQ ID NO.:20), peptide synthesized on cellulose with the SPOT technology]	showed antimicrobial activity
